The subject of assay [1] is human adult and elderly PBMCs. Briefly: TNF ELISA in human adult or elderly PBMCs, 96-well format. In kind it is cell-based. The following applies: stimulated for 24 hours. The source says:
FIGS. 1A-1D. Discovery of PVP-179 in a human PBMC high-throughput screen. FIG. 1A: A graphical overview depicting screen approach. From a high-throughput screen previously conducted, 310 molecules were identified to be activators of either THP-1 cells (monocyte cell line) or primary human adult peripheral blood mononuclear cells (PBMCs). These 310 molecules were assembled into a stimulation plate and then applied to the PBMCs of 4 elderly donors (cultured with 10% autologous plasma). […] Z scores were averaged across all four elderly donors. The Z score and chemical structure for PVP-179 are indicated. FIG. 1C: Human adult or elderly PBMCs (cultured with 10% autologous plasma) were stimulated with PVP-179 in a two-point concentration titration manner. […] N=4 donors. FIG. 1D: As in FIG. 1C, the supernatants were collected, and 14 cytokines were measured by multiplex assay. […] N=4 donors each.
The activity of PVP-179 was confirmed in a 96-well format in both human adult and elderly PBMCs.

The subject of the next assay is human elderly PBMCs. Nature of the assay: Screen of 310 molecules for TNF production by human elderly PBMCs. Format: cell-based. The following applies: elderly PBMCs of 4 donors, 10% autologous plasma. The source says: FIGS. 1A-1D. Discovery of PVP-179 in a human PBMC high-throughput screen. FIG. 1A: A graphical overview depicting screen approach. From a high-throughput screen previously conducted, 310 molecules were identified to be activators of either THP-1 cells (monocyte cell line) or primary human adult peripheral blood mononuclear cells (PBMCs). These 310 molecules were assembled into a stimulation plate and then applied to the PBMCs of 4 elderly donors (cultured with 10% autologous plasma). […] Z scores were averaged across all four elderly donors. The Z score and chemical structure for PVP-179 are indicated. FIG. 1C: Human adult or elderly PBMCs (cultured with 10% autologous plasma) were stimulated with PVP-179 in a two-point concentration titration manner. After 18 hours of incubation, supernatant was processed for ELISA-based measurement of TNF production. N=4 donors. FIG. 1D: As in FIG. 1C, the supernatants were collected, and 14 cytokines were measured by multiplex assay. […] N=4 donors each.
In a previous high throughput screen (HTS), a number of hit molecules were identified as potentially activating human leukocytes. […] A separate pilot screen of 9,000 of the molecules for TNF-inducing activity in adult human peripheral blood mononuclear cells (PBMCs) subsequently identified 133 molecules. […]

Another assay concerns human adult PBMCs. Nature of the assay: TNF ELISA in human adult PBMCs after TLR8 inhibitor CUCPT-9a. The following applies: CUCPT-9a pre-incubation. Format: cell-based. The method, then: FIG. 3E: As in FIG. 3D, PBMCs isolated from human adult donors were cultured with 10% autologous plasma and incubated with CUCPT-9a. After inhibition, cells were stimulated with DMSO, TL8-506 (TLR8 specific agonist), LPS (TLR4 agonist; negative control) and different concentrations of PVP-179. Supernatants were harvested after 20-24 hours and analyzed for production of TNF via ELISA. N=6 donors.
Next a TLR8-specific pharmacological inhibitor (CUCPT-9a), which stabilizes the TLR8 dimer in its resting state, was used to inhibit activity downstream of TLR8.
A general note: An ELISA detects its analyte on a solid surface through an enzyme-linked reagent.

Assay [2] relates to Balb/c murine model of SARS-CoV-2 immunization. In kind it is in vivo, BALB/c mice. The following applies: for rSpike immunogenicity: prime Day 0, boost Day 14.
The subject of assay [3] is human monocyte derived dendritic cells. Nature of the assay: TNF ELISA in human monocyte derived dendritic cells (MoDCs). In kind it is cell-based. To be noted: 20-24 hours. The method, then:
FIGS. 4A-4D. PVP-179 activates human macrophages and dendritic cells. FIGS. 4A-4B: Murine mononuclear cells were isolated from bone marrow and induced differentiation into dendritic cells (with GM-CSF and IL-4). After 5 days of culturing, these bone-marrow-derived dendritic cells (BMDCs) were stimulated with PVP-179 or MPLA for 18 hours at indicated concentrations. The supernatants were analyzed via ELISA where each dot in the graph represents the mean production of mTNF (FIG. 4A) and mIL-6 (FIG. 4B). N=6 for PVP-179, N=3 for MPLA. Two-way Anova was performed to determine statistical significance. The comparisons shown are compared to control group (0 M PVP-179). FIGS. 4C-4D: PBMCs were isolated from blood of adult human donors. CD14+ monocytes were specifically isolated from the PBMCs and were then cultured in 10% autologous plasma and induced to differentiate into macrophages with M-CSF (FIG. 4C), or dendritic cells with GM-CSF and IL-4 (FIG. 4D). After 5 days, cells were harvested from each differentiated cell type (macrophages: Mφ; dendritic cells: MoDCs) and a 96-well plate was setup with 100,000 cells/well. Cells were then stimulated with indicated concentrations of PVP-179 or R848 (33 μM) or LPS (100 ng/mL). After 20-24 hours of incubation, supernatants were harvested and applied to TNF ELISA. N=2 donors.

Where two headings read alike, the source gives them in different places.

The text below walks through data of patent US20250041278A1, “TLR8 AGONIST FOR MODULATING IMMUNE RESPONSE” (The Children's Medical Center Corporation, priority 2021, published 2025).

Consider `CCCCn1c(/N=C/c2nc3ccccc3n2C)nc2ccccc21` [PVP-179], for which the “production of TNF” value in assay [1] (adult PBMCs) and in assay [1] (elderly PBMCs) was “concentration-dependent production of TNF” in each case. The “TNF production, screen hit call” value with human elderly PBMCs is “robust TNF-inducing hit”. In addition, in the assay with human adult PBMCs, the “PVP-179 induced TNF production after CUCPT-9a” value is “completely blocked”. For the same molecule, in assay [2] (adult mice), the adjuvant activity entry was “adjuvant activity”. In addition, the rSpike immunogenicity entry in assay [2] (adult mice (12 weeks)) and in assay [2] (aged mice (52 weeks/12 months old)) was “enhanced rSpike immunogenicity” in each case. In assay [2] (aged mice), the antibody subtype enhanced result is listed as “primarily enhanced the production of anti-rSpike IgG1 subtype antibodies”. For the same molecule, the “antibody titers compared to rSpike alone” value in assay [2] (aged mice, Day 28 serum) is 2-5 fold. The TNF-inducing activity entry in assay [3] was “concentration-dependent activity”.
